Data published in patent publication US20230365492A1, “LITHIUM ORGANIC ACID-AMINO ACID SALT, AND CRYSTAL FORM, COMPOSITION AND APPLICATION THEREOF” (ANYU BIOTECHNOLOGY (HANGZHOU) CO., LTD., priority 2020, published 2023).
“Also recorded” adds a separate entry of the source.

Experiments:
[1] = tested on: tau protein; settings: SH-SY5Y cells, 3 hours, Western blot
Excerpt: (§1) GAPDH was used as an internal reference protein.

[2] = tested on: Notch protein; settings: SH-SY5Y cells, 3 hours, concentration of less than 50 mM, Western blot
Excerpt: GAPDH was used as an internal reference protein. A Notch protein is an important signaling molecule at the downstream of GSK-3, and plays an important positive role in regulating the proliferation and survival of cells.

[3] = target: GSK-3β (Cricetulus griseus, UniProt A0A061I155); settings: CHO cells, treated 2 hours, 0-50 mM (vs lithium isobutyrate) or 0-90 mM (vs lithium carbonate), Western blot, GAPDH reference
Excerpt: The cells were continuously subjected to lysis by an RIPA buffer containing a protease inhibitor, followed by detection by Western blot with phosphorylated GSK-3β (Ser9) or a total GSK-3β antibody as an antibody.
GAPDH (glyceraldehyde-3-phosphate dehydrogenase) was used as an internal reference protein.

[4] = tested on: HEK293 cells; settings: 5 mM, 4 hours, confocal microscope
[5] = tested on: Kunming mice
Procedure: According to the Horn's method, 40 Kunming mice (with the weight of 19.8-22 g, including half male mice and half female mice) were divided into four groups at an equal ratio of 2.15, including a 464 mg/kg dose group, a 1,000 mg/kg dose group, a 2,150 mg/kg dose group and a 4,640 mg/kg dose group (each group was orally administrated at one time and includes 10 mice with half male mice and half female mice). […] 24 hours later, poisoning symptoms, occurrence time and death time of the experimental animals were observed every day for an observation period of 14 days. Dead animals and other animals sacrificed within 14 days were subjected to gross anatomy. When gross pathological changes were observed by naked eyes, pathological examination was performed.

[6] = tested on: β-catenine; settings: CHO cells, 0-50 mM, 2 hours, Western blot
Excerpt: as §1

[7] = target: GSK-3β (Mus musculus, UniProt Q9WV60); settings: APP/PS1 mice, gavage, 0.02 and 0.08 mmol/mouse, 4 hours after administration
Procedure: Brain tissues were extracted, and a homogenate of the brain tissues was prepared.

GSK-3β (Cricetulus griseus, UniProt A0A061I155), sequence (A0A061I155 1-428): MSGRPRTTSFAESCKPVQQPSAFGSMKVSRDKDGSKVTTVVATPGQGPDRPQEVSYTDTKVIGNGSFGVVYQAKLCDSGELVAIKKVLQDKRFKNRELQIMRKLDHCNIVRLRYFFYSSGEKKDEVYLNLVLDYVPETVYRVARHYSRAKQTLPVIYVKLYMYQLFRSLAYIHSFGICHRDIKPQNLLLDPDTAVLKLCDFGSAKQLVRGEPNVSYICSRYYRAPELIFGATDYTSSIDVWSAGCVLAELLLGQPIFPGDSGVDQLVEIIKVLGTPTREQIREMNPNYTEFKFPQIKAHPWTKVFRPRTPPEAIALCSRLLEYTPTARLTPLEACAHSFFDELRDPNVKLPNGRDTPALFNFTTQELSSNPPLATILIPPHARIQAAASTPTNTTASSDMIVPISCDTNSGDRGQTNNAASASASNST
GSK-3β (Mus musculus, UniProt Q9WV60), sequence (Q9WV60 whole entry): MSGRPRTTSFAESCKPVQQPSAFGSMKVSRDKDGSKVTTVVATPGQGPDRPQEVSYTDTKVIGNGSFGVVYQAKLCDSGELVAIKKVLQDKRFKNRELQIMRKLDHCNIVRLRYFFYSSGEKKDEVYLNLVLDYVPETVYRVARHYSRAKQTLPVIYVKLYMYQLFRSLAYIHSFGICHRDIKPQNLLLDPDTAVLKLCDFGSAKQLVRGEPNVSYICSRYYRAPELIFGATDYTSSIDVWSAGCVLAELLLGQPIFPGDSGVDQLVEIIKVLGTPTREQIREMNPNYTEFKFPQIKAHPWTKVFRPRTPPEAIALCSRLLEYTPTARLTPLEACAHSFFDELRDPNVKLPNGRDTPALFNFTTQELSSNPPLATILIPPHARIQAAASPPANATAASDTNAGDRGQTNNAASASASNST

Compound	concentration at which an effect on total tau protein expression is seen [1]	Notch protein expression [2]	inhibition of the activity of GSK-3β (phosphorylated GSK-3β (Ser9) expression) [3]	change in morphology of HEK293 cells [4]	symptoms of experimental animals ([5]; oral, 464 mg/kg and 1,000 mg/kg dose groups)	symptoms and death of experimental animals ([5]; oral, 2,150 mg/kg and 4,640 mg/kg dose groups, within 24 hours)	total tau protein expression ([1]; 0-50 mM)	cell survival related protein (β-catenine) expression [6]	effect on phosphorylated GSK-3β (Ser9) expression in brain tissues [7]
O=C([O-])[O-].[Li+].[Li+] [lithium carbonate, reference compound]	6.25 mM	obvious inhibition effect on the Notch protein expression	obviously lower than that of the lithium isobutyrate-L-proline salt	obvious change in morphology	no abnormalities	abnormal posture symptoms within 24 hours and are all dead	–	–	–
lithium isobutyrate-L-proline salt	3.125 mM	no influence on the Notch expression	significantly decreased phosphorylated GSK-3β (Ser9) expression in a dose-dependent manner; also recorded: dose-dependent inhibition effect on the GSK-3β, and the inhibition effect is stable	–	–	–	significantly decrease the total tau protein expression in a concentration-dependent manner	significantly increases the cell survival related protein (β-catenine) expression in a dose-dependent manner	significantly better than that of the lithium carbonate
